Assay results published in ChEMBL document CHEMBL1137809, “Antifungal activity of benzoic acid derivatives from Piper lanceaefolium” (2002).
Values after ≈ are worked out from the molar mass of the structure shown. Active and inactive are the calls of the source. No cut-off for these calls is given here.

What was measured:
[1] = tested on: Candida albicans; assay: Antifungal activity against Candida albicans after 24 hrs by broth dilution assay; type: functional
[2] = tested on: Cladosporium cucumerinum; assay: Antifungal activity against Cladosporium cucumerinum at 5 ug by bioautographic TLC test; type: functional, organism-based

Row | SMILES | Activity [1] | Activity [2] | MIC [1] [µg/mL]
1 | CC1(C)CC(=O)c2cc(C(=O)O)cc(O)c2O1 | inactive |  | 
2 | CC(C)=CC(=O)c1cc(C(=O)O)cc(O)c1O | inactive |  | 
3 | COC(=O)c1cc(O)c2c(c1)C(=O)CC(C)(C)O2 | inactive |  | 
4 | CC(C)=CC(=O)c1cc(C(=O)O)ccc1O | inactive | inactive | 
5 | COC(=O)c1cc(O)c(O)c(C(=O)C=C(C)C)c1 [LANCEAEFOLIC ACID METHYL ESTER] |  |  | 100 (≈ 400 µM)
